Data as given in ChEMBL document CHEMBL5215000, “Seco B-Type Oligomers from Pinus massoniana Expand the Procyanidin Chemical Space and Exhibit Dental Bioactivity” (2022).

What follows are compounds tested on Dentine (assay: Bio-modification of human mid coronal dentine assessed as fold change in complex modulus at 0.2% w/v incubated for 1 hrs by dynamic mechanical analysis).
Type: functional

| Structure (SMILES) | fold change (FC) |
| --- | --- |
| Oc1cc(O)c(C[C@@H]2Oc3c4c(cc(O)c3[C@H]2c2ccc(O)c(O)c2)O[C@H](c2ccc(O)c(O)c2)[C@@H](O)C4)c(O)c1 | 4.2 |
| Oc1cc(O)c(C[C@H](O)[C@H](c2ccc(O)c(O)c2)c2c(O)cc(O)c3c2O[C@@H](c2ccc(O)c(O)c2)[C@@H](O)C3)c(O)c1 | 3.3 |
| Oc1cc(O)c2c(c1)O[C@H]([C@H](c1ccc(O)c(O)c1)c1c(O)cc(O)c3c1O[C@H](c1ccc(O)c(O)c1)[C@@H](O)C3)C2 | 5.2 |
| Oc1cc(O)c(C[C@H](O)[C@H](c2ccc(O)c(O)c2)c2c(O)cc(O)c3c2O[C@H](c2ccc(O)c(O)c2)[C@@H](O)C3)c(O)c1 | 3.3 |
| Oc1cc(O)c(C[C@H](O)[C@H](c2ccc(O)c(O)c2)c2c(O)cc(O)c3c2O[C@@H](c2ccc(O)c(O)c2)[C@H](O)C3)c(O)c1 | 3.3 |
